# “And” between values parts separate entries of the source, which are not always exact repeats. Equal entries are not always repeated. Structures can show the parent of a compound that is named as a salt. Where two headings read alike, the source gives them in different places.
# Test: Phase I clinical trial: plasma concentrations after weekly intravenous infusion (pharmacokinetics)
# Format: in vivo, human
# Settings: for Plasma Concentrations 1 HR / concentration at 1 h after end of infusion / concentration at 1 h: 1 hr after infusion; for Plasma Concentrations 2 HR / concentration at 2 h / concentration at 2 h after end of infusion: 2 hr after infusion; for concentration at 24 h after end of infusion / concentration at 24 h: 24 hr after infusion; for concentration at 12 h after end of infusion / concentration at 12 h: 12 hr after infusion; for Cmax: intravenous administration of a single dose, read-out: estimated Cmax
# Protocol: An open-label, dose-escalating, multiple-dose study to define the safety, tolerability and pharmacokinetics of weekly intravenous administration of (4-Methoxy-phenyl)-methyl-(2-methyl-quinazolin-4-yl)-amine hydrochloride was performed. A dosing schedule (each 4 week cycle) was performed for (4-Methoxy-phenyl)-methyl-(2-methyl-quinazolin-4-yl)-amine hydrochloride weekly for 3 weeks with no infusion on the fourth week of each cycle. Subjects with refractory solid tumors were enrolled in cohorts of 3. During Cycle 1, subjects were hospitalized during each infusion of (4-Methoxy-phenyl)-methyl-(2-methyl-quinazolin-4-yl)-amine hydrochloride and remained for observation and safety evaluation for approximately 24 hours following the end of the infusion. All subjects had continuous telemetry for 2 hours prior to infusion, for 1-2 hour infusion and for 3 hours after the end of the infusion. Any clinically significant electrocardiographic (ECG) wave form abnormality was recorded and prolongation of the monitoring period extended at the discretion of the principal investigator.
# Blood samples were collected prior to dosing, at the end of the infusion, and 1, 2, 4, 6, 12, and 24 hours after the infusion. This sampling schedule occurred on Days 1 and 15 with administration of the first and third doses. Samples were collected into tubes containing EDTA and stored on ice until centrifuged. The plasma was frozen at approximately −20° C. in labeled, plastic tubes, or vials, and tightly capped. The samples were shipped to Myriad Pharmaceuticals, Inc. for analysis of (4-Methoxy-phenyl)-methyl-(2-methyl-quinazolin-4-yl)-amine hydrochloride. Pharmacokinetic analysis was conducted using WinNonlin 4.0®.
# [1] = Day 15, 3.3 mg/m^2 i.v., infusion 2 hr, LLOQ 1 ng/mL, hydrochloride
# [2] = Day 15, 3.9 mg/m^2 i.v., infusion 2 hr, LLOQ 1 ng/mL, hydrochloride
# [3] = Day 15, 4.5 mg/m^2 i.v., infusion 2 hr, LLOQ 1 ng/mL, hydrochloride
# [4] = human, plasma, iv, 1 mg/m^2, Day 1, 1.0 mg/m^2 i.v., infusion 1 hr, LLOQ 1 ng/mL
# [5] = human, plasma, iv, 1 mg/m^2, Day 15, 1.0 mg/m^2 i.v., infusion 1 hr, LLOQ 1 ng/mL
# [6] = human, plasma, iv, 1.5 mg/m^2, Day 15, 1.5 mg/m^2 i.v., infusion 1 hr, LLOQ 1 ng/mL
# [7] = human, plasma, iv, 2.1 mg/m^2, Day 1, 2.1 mg/m^2 i.v., infusion 1 hr, LLOQ 1 ng/mL
# [8] = human, plasma, iv, 2.1 mg/m^2, Day 15, 2.1 mg/m^2 i.v., infusion 1 hr, LLOQ 1 ng/mL
# [9] = human, plasma, iv, 2.7 mg/m^2, Day 1, 2.7 mg/m^2 i.v., infusion 1 hr, LLOQ 1 ng/mL
# [10] = human, plasma, iv, 3.3 mg/m^2, Day 1, 3.3 mg/m^2 i.v., infusion 2 hr, LLOQ 1 ng/mL
# [11] = human, plasma, iv, 3.3 mg/m^2, Day 15, 3.3 mg/m^2 i.v., infusion 2 hr, LLOQ 1 ng/mL
# [12] = human, plasma, iv, 3.9 mg/m^2, Day 15, 3.9 mg/m^2 i.v., infusion 2 hr, LLOQ 1 ng/mL
# [13] = human, plasma, iv, 4.5 mg/m^2, Day 15, 4.5 mg/m^2 i.v., infusion 2 hr, LLOQ 1 ng/mL
smiles,measurement,setting,value
COc1ccc(N(C)c2nc(C)nc3ccccc23)cc1 [(4-Methoxy-phenyl)-methyl-(2-methyl-quinazolin-4-yl)-amine hydrochloride],Plasma Concentrations 1 HR,[1],12.21 ng/mL and 6.40 ng/mL and 7.21 ng/mL
same,Plasma Concentrations 2 HR,[1],7.50 ng/mL and 5.52 ng/mL and 4.16 ng/mL
same,Plasma Concentrations 1 HR,[2],10.97 ng/mL and 12.15 ng/mL and 7.79 ng/mL and 9.85 ng/mL
same,Plasma Concentrations 2 HR,[2],8.48 ng/mL and 14.58 ng/mL and 7.36 ng/mL and 8.35 ng/mL
same,Plasma Concentrations 4 HR,"Day 15, 3.9 mg/m^2 i.v., infusion 2 hr, 4 hr after infusion, LLOQ 1 ng/mL, hydrochloride",9.13 ng/mL and 7.84 ng/mL and 10.17 ng/mL and 6.81 ng/mL
same,Plasma Concentrations 1 HR,[3],17.94 ng/mL and 11.45 ng/mL and 10.03 ng/mL
same,Plasma Concentrations 2 HR,[3],14.46 ng/mL and 12.32 ng/mL and 8.11 ng/mL
same,concentration at 1 h after end of infusion,"human, plasma, iv, 0.3 mg/m^2, Day 1, 0.3 mg/m^2 i.v., infusion 1 hr, LLOQ 1 ng/mL",1.03 ng/mL
same,concentration at 1 h,"human, plasma, iv, 0.3 mg/m^2, Day 15, 0.3 mg/m^2 i.v., infusion 1 hr, LLOQ 1 ng/mL",1.43 ng/mL
same,concentration at 24 h after end of infusion,"human, plasma, iv, 0.6 mg/m^2, Day 1, 0.6 mg/m^2 i.v., infusion 1 hr, LLOQ 1 ng/mL",5.89 ng/mL
same,concentration at 12 h after end of infusion,[4],3.62 ng/mL
same,concentration at 24 h after end of infusion,[4],1.98 ng/mL
same,concentration at 1 h,[5],2.24 ng/mL
same,concentration at 2 h,[5],1.23 ng/mL
same,concentration at 4 h,"human, plasma, iv, 1 mg/m^2, Day 15, 1.0 mg/m^2 i.v., infusion 1 hr, 4 hr after infusion, LLOQ 1 ng/mL",1.26 ng/mL
same,concentration at 12 h after end of infusion,"human, plasma, iv, 1.5 mg/m^2, Day 1, 1.5 mg/m^2 i.v., infusion 1 hr, LLOQ 1 ng/mL",1.95 ng/mL
same,concentration at 4 h,"human, plasma, iv, 1.5 mg/m^2, Day 15, 1.5 mg/m^2 i.v., infusion 1 hr, 4 hr after infusion, LLOQ 1 ng/mL",1.01 ng/mL
same,concentration at 6 h,"human, plasma, iv, 1.5 mg/m^2, Day 15, 1.5 mg/m^2 i.v., infusion 1 hr, 6 hr after infusion, LLOQ 1 ng/mL",1.47 ng/mL
same,concentration at 12 h,[6],2.24 ng/mL
same,concentration at 24 h,[6],1.63 ng/mL
same,concentration at 1 h after end of infusion,[7],4.06 ng/mL
same,concentration at 2 h after end of infusion,[7],3.28 ng/mL
same,concentration at 4 h after end of infusion,"human, plasma, iv, 2.1 mg/m^2, Day 1, 2.1 mg/m^2 i.v., infusion 1 hr, 4 hr after infusion, LLOQ 1 ng/mL",2.64 ng/mL
same,concentration at 6 h after end of infusion,"human, plasma, iv, 2.1 mg/m^2, Day 1, 2.1 mg/m^2 i.v., infusion 1 hr, 6 hr after infusion, LLOQ 1 ng/mL",1.12 ng/mL
same,concentration at 12 h after end of infusion,[7],1.09 ng/mL
same,concentration at 1 h,[8],4.81 ng/mL
same,concentration at 4 h,"human, plasma, iv, 2.1 mg/m^2, Day 15, 2.1 mg/m^2 i.v., infusion 1 hr, 4 hr after infusion, LLOQ 1 ng/mL",2.05 ng/mL
same,concentration at 12 h,[8],1.09 ng/mL
same,concentration at 24 h,[8],2.63 ng/mL
same,concentration at 1 h after end of infusion,[9],6.16 ng/mL
same,concentration at 2 h after end of infusion,[9],4.37 ng/mL
same,concentration at 4 h after end of infusion,"human, plasma, iv, 2.7 mg/m^2, Day 1, 2.7 mg/m^2 i.v., infusion 1 hr, 4 hr after infusion, LLOQ 1 ng/mL",3.16 ng/mL
same,concentration at 6 h after end of infusion,"human, plasma, iv, 2.7 mg/m^2, Day 1, 2.7 mg/m^2 i.v., infusion 1 hr, 6 hr after infusion, LLOQ 1 ng/mL",2.09 ng/mL
same,concentration at 12 h after end of infusion,[9],2.35 ng/mL
same,concentration at 24 h after end of infusion,[9],1.36 ng/mL
same,concentration at 12 h,"human, plasma, iv, 2.7 mg/m^2, Day 15, 2.7 mg/m^2 i.v., infusion 1 hr, LLOQ 1 ng/mL",3.95 ng/mL
same,concentration at 2 h,[10],6.03 ng/mL
same,concentration at 24 h,[10],1.73 ng/mL
same,concentration at 1 h,"human, plasma, iv, 3.3 mg/m^2, Day 15, 3.3 mg/m^2 i.v., infusion 1 hr, LLOQ 1 ng/mL",14.7 ng/mL
same,concentration at 1 h,[11],6.84 ng/mL
same,concentration at 2 h,[11],3.8 ng/mL
same,concentration at 24 h,[11],1.48 ng/mL
same,concentration at 1 h,[12],10.6 ng/mL
same,concentration at 2 h,[12],10.4 ng/mL
same,concentration at 4 h,"human, plasma, iv, 3.9 mg/m^2, Day 15, 3.9 mg/m^2 i.v., infusion 2 hr, 4 hr after infusion, LLOQ 1 ng/mL",8.24 ng/mL
same,concentration at 24 h,"human, plasma, iv, 4.5 mg/m^2, Day 1, 4.5 mg/m^2 i.v., infusion 2 hr, LLOQ 1 ng/mL",1.17 ng/mL
same,concentration at 1 h,[13],13.6 ng/mL
same,concentration at 2 h,[13],13.1 ng/mL
same,Cmax,"human, plasma, iv, Day 1, plasma",~14 ng/mL
same,Cmax,"human, plasma, iv, Day 15, plasma",~26 ng/mL

# — patent US20100087457A1, “DOSAGES AND METHODS FOR THE TREATMENT OF CANCER” (Myriad Pharmaceuticals, Inc, priority 2007, published 2010)
